Results from PMC12633732, “Dynamics of release and activity of select neuropeptides post-bloodmeal in the female mosquito, Aedes aegypti” (The Journal of Experimental Biology, 2025).
pEC50: −log10 of the molar value. Where two headings read alike, the source gives them in different places. Bridge positions count the residues as written; N and C are the ends. Square brackets hold non-standard residues; d marks the D form. Ends that are not written are not given here. Peptide text beside a SMILES is read from it. pGlu = O=C1CC[C@@H](C(=O)O)N1

Assays:
[1] = test system: Malpighian tubules (MTs) of adult female A. aegypti; set-up: species or system Aedes aegypti; conditions: for Effect of single diuretic on fluid secretion: 25 nmol l^−1 DH31, 100 nmol l^−1 5HT, 10 nmol l^−1 DH44, 50 nmol l^−1 CDP, 60 min, Fig. 5A
Experimental: In order to determine fluid secretion rates, modified Ramsay assays were performed as described previously ([Lajevardi et al., 2021]; [Sajadi et al., 2018]). Female adults (4–7 days old) were dissected under physiological Aedes saline adapted from [Petzel et al. (1987)] that contained (in mmol l^−1): 150 NaCl, 25 Hepes, 3.4 KCl, 7.5 NaOH, 1.8 NaHCO3, 1 MgSO4, 1.7 CaCl2 and 5 glucose, and titrated to pH 7.1. Individual MTs were removed and placed in a Sylgard-lined Petri dish containing 20 µl bathing droplets [1:1 mixture of Schneider's Insect Medium (Sigma-Aldrich, Oakville, ON, Canada): Aedes saline], immersed in hydrated mineral oil to prevent evaporation. The proximal end of each tubule was wrapped around a minutien pin to allow for fluid secretion measurements. Dose response analysis for AedaeDH31 was determined by using concentrations ranging from 10^−5 to 10^−12 mol l^−1 on unstimulated MTs. To investigate the effects of collected haemolymph samples on fluid secretion rate, haemolymph samples from both non-blood-fed and blood-fed females were used against unstimulated MTs and allowed to incubate for 60 min before measurement of secreted fluid droplets. To investigate potential additive or synergistic activity, dosages of 25 nmol l^−1 AedaeDH31, 10 nmol l^−1 Rhodnius prolixus DH (CRF-related peptide, DH44), 50 nmol l^−1 CDP, 100 nmol l^−1 5HT, and 1 fmol l^−1 AedaeCAPA-1 were used ([Sajadi et al., 2018], [2020]).

AedaeDH31-R = assay: Heterologous receptor functional activation bioluminescence assay, AedaeDH31-R; assay type: cell-based, Aedes aegypti; conditions: for pEC50: CHO-K1-aeq cells transiently expressing AedaeDH31-R (pBudCE4.1 Gα15), aequorin luminescence over 20 s, peptides tested up to 10 µmol l^−1, read-out: EC50 on DH31-R
Text: (§1) Gene-specific primers were designed to amplify the open reading frame of the AedaeDH31 receptor and Aedaekinin receptor based on previously published sequences [GenBank accession numbers: DH31-R, AAGE02017873 ([Kwon et al., 2012]); kinin-R, AY596453.1 ([Lu et al., 2011]); see Table 1]. The amplified PCR products were purified using a Monarch PCR purification kit (New England Biolabs, Whitby, ON, Canada) and reamplified using modified primers containing restriction sites for subsequent directional cloning in mammalian expression plasmids. Products were A-tailed and cloned into a pGEM-T Easy vector (Promega, Madison, WI, USA) or pCE2 TA/Blunt-Zero vector (GeneBio Systems, Burlington, ON, Canada) and then transformed into 5-alpha high efficiency competent E. coli (New England Biolabs, Whitby, ON, Canada). Base accuracy of purified plasmid DNA miniprep was confirmed by Sanger sequencing (The Centre for Applied Genomics, Sick Kids, Toronto, ON, Canada). The receptor constructs DH31-R and kinin-R were excised using standard restriction enzyme digestion and subcloned into the mammalian expression vectors, pBudCE4.1 Gα15 or pcDNA3.1^+ (Life Technologies, Burlington, ON, Canada), with the former containing a mammalian promiscuous G protein (Gα15), which facilitates coupling of a wide variety of GPCRs to calcium signaling ([Wahedi et al., 2019]). The previously characterized A. aegypti CAPA receptor inserted into pcDNA3.1^+ ([Sajadi et al., 2020]) was also used for transfection of mammalian cells. Plasmid DNA was purified from overnight bacterial cultures using the ZymoPURE II Plasmid Midiprep Kit (Zymo Research, Tustin, CA, USA) following manufacturer guidelines. These three heterologously expressed receptors were used to determine the timing of release and quantify the levels in the haemolymph of CAPA (both CAPA-1 and CAPA-2), DH31 along with kinin neuropeptides in association with blood feeding by adult female mosquitoes.
(§2) Functional activation of the AedaeDH31-R, AedaeCAPA-R, and Aedaekinin-R was assayed using a previously established recombinant Chinese hamster ovary (CHO)-K1 cell line stably expressing aequorin, referred to henceforth as CHO-K1-aeq cells ([Paluzzi et al., 2012a]; [Wahedi and Paluzzi, 2018]). […] Cells were grown and maintained in Dulbecco's modified eagles medium:nutrient F12 (DMEM:F12; 1:1) medium containing 10% heat-inactivated fetal bovine serum (FBS; Wisent, St. Bruno, QC, Canada), 1× antimycotic-antibiotic and 200 µg ml^−1 geneticin (G418 Sulfate). […] Approximately 48 h post-transfection, cells were dislodged from the culture flasks using 5 mmol l^−1 ethylenediaminetetraacetic acid (EDTA; Life Technologies, Burlington, ON, Canada) in DPBS and cells were resuspended in BSA medium (DMEM-F12 medium containing 0.1% bovine serum albumin, 1X antimycotic-antibiotic) at a concentration of 10^6–10^7 cells ml^−1 quantified using a Countess II FL cell counter (Thermo Fisher Scientific, Burlington, ON, Canada). Coelenterazine h (Promega, Madison, WI, USA) was added to the cells to a final concentration of 5 µmol l^−1 and incubated for 3 h, as described previously ([Oryan et al., 2018]) and subsequently, diluted 10-fold in BSA medium and incubated for an additional hour at room temperature. To measure in vivo circulating levels of DH31, kinin and CAPA in female mosquitoes, diluted haemolymph samples collected in 70 µl DPBS droplets (see section 3.2) were loaded in duplicates into 96-well white luminescence plates (Greiner Bio-One, Germany).

Aedaekinin-R = target: T1, Aedaekinin-R (Aedes aegypti, UniProt Q5EY37); assay: Heterologous receptor functional activation bioluminescence assay, Aedaekinin-R; assay type: cell-based
T1 sequence (Q5EY37 1-584): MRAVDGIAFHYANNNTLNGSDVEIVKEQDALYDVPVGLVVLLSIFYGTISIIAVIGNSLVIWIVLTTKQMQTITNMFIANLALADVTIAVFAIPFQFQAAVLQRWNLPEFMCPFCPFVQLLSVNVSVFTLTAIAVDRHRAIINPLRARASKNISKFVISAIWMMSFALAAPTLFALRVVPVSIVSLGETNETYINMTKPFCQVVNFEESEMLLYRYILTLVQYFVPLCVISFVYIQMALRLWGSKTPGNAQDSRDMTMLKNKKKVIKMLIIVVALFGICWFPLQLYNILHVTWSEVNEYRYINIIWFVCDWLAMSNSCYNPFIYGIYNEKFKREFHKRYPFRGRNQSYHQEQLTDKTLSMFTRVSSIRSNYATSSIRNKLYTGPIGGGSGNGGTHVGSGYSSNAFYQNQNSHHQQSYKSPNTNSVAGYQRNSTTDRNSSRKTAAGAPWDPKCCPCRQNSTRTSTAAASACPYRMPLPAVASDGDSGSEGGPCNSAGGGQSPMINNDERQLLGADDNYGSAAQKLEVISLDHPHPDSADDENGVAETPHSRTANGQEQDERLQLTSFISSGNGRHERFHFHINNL
Text: as §1, §2

AedaeCAPA-R = target: T2, AedaeCAPA-R (Aedes aegypti, UniProt A0A7D5D2Z2); assay: cell-based
T2 sequence (A0A7D5D2Z2 1-712): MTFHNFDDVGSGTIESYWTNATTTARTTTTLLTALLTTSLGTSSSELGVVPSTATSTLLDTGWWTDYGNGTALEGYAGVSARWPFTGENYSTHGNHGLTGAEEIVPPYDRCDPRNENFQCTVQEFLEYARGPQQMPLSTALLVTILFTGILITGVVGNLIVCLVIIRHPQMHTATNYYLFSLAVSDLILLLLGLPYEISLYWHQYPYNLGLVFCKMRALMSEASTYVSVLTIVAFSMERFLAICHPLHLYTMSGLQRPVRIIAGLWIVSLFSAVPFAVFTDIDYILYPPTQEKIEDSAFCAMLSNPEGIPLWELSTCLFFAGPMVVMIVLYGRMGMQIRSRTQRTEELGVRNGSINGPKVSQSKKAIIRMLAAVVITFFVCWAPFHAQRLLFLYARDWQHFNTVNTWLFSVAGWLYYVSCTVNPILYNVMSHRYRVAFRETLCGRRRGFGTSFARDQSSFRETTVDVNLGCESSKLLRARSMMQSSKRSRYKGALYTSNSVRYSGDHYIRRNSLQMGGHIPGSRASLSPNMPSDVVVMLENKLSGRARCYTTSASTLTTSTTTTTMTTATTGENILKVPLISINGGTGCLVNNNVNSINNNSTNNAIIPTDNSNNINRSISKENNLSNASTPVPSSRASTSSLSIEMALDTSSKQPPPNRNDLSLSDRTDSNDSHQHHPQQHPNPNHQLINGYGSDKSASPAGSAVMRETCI
Text: Gene-specific primers were designed to amplify the open reading frame of the AedaeDH31 receptor and Aedaekinin receptor based on previously published sequences [GenBank accession numbers: DH31-R, AAGE02017873 ([Kwon et al., 2012]); kinin-R, AY596453.1 ([Lu et al., 2011]); see Table 1]. The amplified PCR products were purified using a Monarch PCR purification kit (New England Biolabs, Whitby, ON, Canada) and reamplified using modified primers containing restriction sites for subsequent directional cloning in mammalian expression plasmids. […] These three heterologously expressed receptors were used to determine the timing of release and quantify the levels in the haemolymph of CAPA (both CAPA-1 and CAPA-2), DH31 along with kinin neuropeptides in association with blood feeding by adult female mosquitoes.
Functional activation of the AedaeDH31-R, AedaeCAPA-R, and Aedaekinin-R was assayed using a previously established recombinant Chinese hamster ovary (CHO)-K1 cell line stably expressing aequorin, referred to henceforth as CHO-K1-aeq cells ([Paluzzi et al., 2012a]; [Wahedi and Paluzzi, 2018]). […] To measure in vivo circulating levels of DH31, kinin and CAPA in female mosquitoes, diluted haemolymph samples collected in 70 µl DPBS droplets (see section 3.2) were loaded in duplicates into 96-well white luminescence plates (Greiner Bio-One, Germany).

[2] = CHO-K1-aeq cells transiently expressing Aedaekinin-R (pcDNA3.1+), aequorin luminescence over 20 s, peptides tested up to 10 µmol l^−1, read-out: EC50 on kinin-R

Compound	pEC50 (AedaeDH31-R)	pEC50 (Aedaekinin-R; [2])	also measured
NCCc1c[nH]c2ccc(O)cc12 [5HT, 5-hydroxytryptamine]	–	–	Effect of single diuretic on fluid secretion [1]: significantly increased fluid secretion
CC(C)[C@H](NC(=O)[C@@H]1CCC(=O)N1)C(=O)N[C@H](C(=O)N[C@@H](Cc1ccccc1)C(=O)N[C@@H](CO)C(=O)N[C@@H](CCCNC(=N)N)C(=O)N[C@@H](CC(=O)O)C(=O)N[C@@H](Cc1c[nH]c2ccccc12)C(=O)N[C@@H](CC(N)=O)C(=O)N[C@@H](C)C(N)=O)[C@@H](C)O [ACP] ([pGlu]VTFSRDWNA-NH2)	< 5.00	–	pEC50 (Aedaekinin-R): < 5.00
CC(C)C[C@H](NC(=O)[C@@H]1CCC(=O)N1)C(=O)N[C@H](C(=O)N[C@@H](Cc1ccccc1)C(=O)N[C@H](C(=O)N1CCC[C@H]1C(=O)N[C@@H](CO)C(=O)N[C@@H](Cc1c[nH]c2ccccc12)C(N)=O)[C@@H](C)O)[C@@H](C)O [AKH] ([pGlu]LTFTPSW-NH2)	< 5.00	–	pEC50 (Aedaekinin-R): < 5.00
CC(C)C[C@@H]1NC(=O)[C@@H](NC(=O)CNC(=O)CNC(=O)[C@@H](N)CCCCN)CSSC[C@@H](C(=O)N[C@@H](Cc2c[nH]c3ccccc23)C(=O)NCC(=O)NCC(=O)N[C@@H](Cc2c[nH]cn2)C(N)=O)NC(=O)[C@H](CO)NC(=O)[C@H](Cc2c[nH]cn2)NC(=O)CNC(=O)[C@H](Cc2ccc(O)cc2)NC(=O)[C@H](CO)NC1=O [CCHa1] (H-KGGCLSYGHSCWGGH-NH2; disulfide 4-11 (inferred); N-terminus assumed)	< 5.00	–	–
C[C@@H]1NC(=O)[C@H](C)NC(=O)[C@@H](NC(=O)CN)CSSC[C@@H](C(=O)N[C@@H](Cc2ccc(O)cc2)C(=O)NCC(=O)NCC(=O)N[C@@H](Cc2c[nH]cn2)C(N)=O)NC(=O)[C@H](C)NC(=O)[C@H](Cc2c[nH]cn2)NC(=O)CNC(=O)[C@H](Cc2ccccc2)NC1=O [CCHa2] (H-GCAAFGHACYGGH-NH2; disulfide 2-9 (inferred); N-terminus assumed)	< 5.00	–	–
CSCC[C@H](NC(=O)[C@H](CC(N)=O)NC(=O)[C@@H]1CSSC[C@H](NC(=O)[C@H](CC(C)C)NC(=O)[C@H](CO)NC(=O)[C@H](CCSC)NC(=O)[C@@H](N)Cc2ccc(O)cc2)C(=O)N[C@@H](Cc2c[nH]cn2)C(=O)N[C@@H](Cc2ccccc2)C(=O)N[C@@H](CCCCN)C(=O)N[C@@H](CC(C)C)C(=O)N1)C(N)=O [CNMa] (H-YMSLCHFKLCNM-NH2; disulfide 5-10 (inferred); N-terminus assumed)	< 5.00	–	–
AGNSGANSGMWFGPRL-NH2 [PK1]	< 5.00	< 5.00	–
GPTVGLFAFPRV-NH2 [CAPA1]	–	< 5.00	pEC50 (AedaeCAPA-R): 8.74
MQRPQGPSLSVANPIEVLRSRLLLEIARRRMKEQDASRVSKNRQYLQQI-NH2 [DH44]	< 5.00	< 5.00	Luminescence response over background on AedaeDH31-R (AedaeDH31-R; 10^−6 mol l^−1 dose, Fig. 1B, n=3): no detectable activity; Effect of single diuretic on fluid secretion [1]: significantly increased fluid secretion
NPFHSWG-NH2 [CDP]	–	7.94	–
PVFFVASRY-NH2 [RYa-1]	< 5.00	< 5.00	–
TVDFGLSRGYSGAQEAKHRMAMAVANFAGGP-NH2 [DH31]	–	< 5.00	pEC50 [1]: 7.87
